Tests used:
[1] = test system: differentiated HL-60 cells; assay: TUNEL apoptosis assay; assay type: cell-based, human; conditions: CLSM images
Protocol: To further confirm the apoptosis of differentiated HL-60 cells induced by DOX, TUNEL assay was also performed using Cell Meter™ TUNEL (green fluorescence) Apoptosis Assay Kit (AAT Bioquest, Inc.) according to the manufacturer's protocol and the images were taken by a Nikon A1R^+ confocal laser scanning microscope.

[2] = test system: heart, liver, spleen, lung and kidney; assay: Toxicity by histological analysis (H&E staining of major organs); conditions: for tissue or cellular damage in H&E sections of heart, liver, spleen, lung, kidney: 0.2 mg/kg DOX
Protocol: After different treatments (healthy, PBS, 4 mg/kg of free DOX, 0.2 mg/kg of free DOX, DOX-hyd-BSA NPs and DOX-ab-BSA NPs, equal to 0.2 mg/kg of DOX for NPs), mice were sacrificed by carbon dioxide asphyxiation. […] The samples were imaged by a microscope (ZEISS, Observer. Z1, USA).

[3] = test system: differentiated HL-60 cells (neutrophil-like cells); assay: In vitro cytotoxicity, CCK-8 assay; assay type: cell-based, human; conditions: 24 h, different concentrations of DOX
Protocol: Cytotoxic effects of BSA NPs on HL-60 cells were measured by CCK-8 assay. HL-60 cells were plated in 96-well plates (Costar, Corning, N.Y.) at 5,000-10,000 cells/well. After incubation for 24 h, the culture medium was removed and a complete medium with various concentrations of free DOX, BSA and DOX-conjugated BSA NPs was used to incubate cells for 24 h, respectively. 10 μL of the solution cell proliferation reagent (Promega, Madison, Wis.) per well was added. Then, the cell viability was measured by a Synergy Neo fluorescence plate reader (BioTek, Winooski, Vt.) at 490 nm.

[4] = test system: differentiated HL-60 cells; assay: Apoptosis analysis, Annexin V-FITC / 7AAD staining (flow cytometry, CLSM); assay type: cell-based, human; conditions: for apoptotic cells by flow cytometry: 24 h, DOX 3 μg/mL; for Annexin V-FITC / 7AAD staining by confocal microscopy: 24 h treatment
Protocol: To investigate the apoptosis of neutrophils induced by DOX, Annexin V-FITC and 7AAD were used to double stain differentiated HL-60 cells. […] The cells were re-suspended in a binding buffer for staining of Annexin V-FITC and 7AAD (emission at 650 nm) according to the manufacturer's protocol (Invitrogen). Stained cells were analyzed using a flow cytometer and imaged by a Nikon A1R^+ confocal laser scanning microscope.

[5] = test system: LPS-challenged mice; assay: Survival study in sepsis mouse model (i.p. LPS 50 mg/kg); assay type: in vivo; conditions: 72 h, 0.2 mg/kg DOX i.v. 4 h after i.p. LPS 50 mg/kg
Protocol: Adult CD-1 mice were i.p. injected with LPS (50 mg/kg) in the mouse sepsis model. 4 hours later, the LPS-challenged mice were grouped randomly (10 mice per group) and treated (i.v.) with PBS, free DOX (0.2 mg/kg), and prodrug DOX-hyd-BSA NPs (equal to 0.2 mg/kg of free DOX). The animals were monitored every 6 h in the first 12 h followed by monitoring mice every 12 h in 72 h.

[6] = In vitro drug release profile (dialysis, 37 C); assay type: physicochemical; conditions: pH 5.0-7.4, in 48 h
Protocol: Release profiles of DOX from NPs were studied using dialysis method at 37° C.(33) Briefly, 3 mg of NPs was dispersed in 3 mL (Ve) PBS at different pH, and then was placed in a dialysis bag (MWCO 3500 Da). The dialysis bag was immersed in 47 mL PBS (pH 7.4, 6.5 or 5.0) in a beaker. The beaker was then placed in a 37° C. water bath and stirred at 110 rpm. The samples were drawn at desired time intervals and the drug concentration was measured using UV-Vis absorption. The experiments were carried out in triplicate at each pH value. The accumulative drug release percent (Er) was calculated based on equation (1).
where, mdrug represents the amount of DOX in NPs, V0 was the whole volume of release media (V0=50 mL), Ci represents the concentration of DOX in the ith sample.

[7] = pH-triggered DOX release, UV-Vis of supernatants after 2 h incubation; assay type: physicochemical; conditions: pH 5.0 to 7.4, 2 h incubation in PBS
Protocol: To confirm the pH-triggered drug release property, BSA NPs, DOX-ab-BSA NPs and DOX-hyd-BSA NPs were incubated in PBS at pH 7.4, 6.5 and 5.0 for 2 h, respectively. After centrifugation, the supernatants were collected to determine DOX concentrations using a UV-Vis spectrometer.

[8] = Serum stability of nanoparticles in PBS with 20% FBS; assay type: physicochemical; conditions: pH 7.4, incubation for 4 days
Protocol: Particle size and polydispersity indexes (PDI) were measured using Malvern Zetasizer Nano90 (Westborough, Mass.). The samples were incubated in PBS at pH 7.4 for 2 h, and the measurements were conducted in a 1.0 mL quartz cuvette using a diode laser of 633 nm at 25° C. and a scattering angle was fixed at 90°. To evaluate their serum stability, nanoparticles were dispersed in 20% FBS PBS solution (pH 7.4) at a final concentration of 1 mg/mL. Nanoparticle sizes were measured at the predefined time points. Transmission electron microscopy (TEM) of nanoparticles was also performed using a FEI Technai G2 20 Twin TEM (Hillsboro, Oreg.).

Molecule | cells with co-staining of DOX and TUNEL [1] | tissue or cellular damage in H&E sections of heart, liver, spleen, lung, kidney [2] | myocardial damage (vacuolization, myofibril loss) ([2]; high dose 4.0 mg/kg) | cytotoxicity (cell viability) [3] | apoptotic cells by flow cytometry [4] | Annexin V-FITC / 7AAD staining by confocal microscopy [4] | mouse survival [5] | co-staining of DOX and TUNEL [1] | cumulative DOX release [6] | DOX absorption in supernatant [7] | serum stability (aggregation, diameter change) [8]
COc1cccc2c1C(=O)c1c(O)c3c(c(O)c1C2=O)C[C@@](O)(C(=O)CO)C[C@@H]3O[C@H]1C[C@H](N)[C@H](O)[C@H](C)O1.Cl [free DOX, doxorubicin hydrochloride] | ~100% | did not show any noticeable signs of tissue or cellular damage | induced myocardial damage | cytotoxicity was similar for both free DOX and DOX-hyd-BSA NPs | 73% | contained staining of Annexin-V-FITC, and less staining of 7AAD | 10-20% | – | – | – | –
DOX-ab-BSA NPs | – | did not show any noticeable signs of tissue or cellular damage | – | more efficient compared to that of DOX-ab-BSA NPs | 20% | did not induce cell apoptosis | – | a few cells possessed TUNEL signal | 10-20% | did not show the absorption of DOX in their supernatants | no aggregation (diameter change) was observed

Source: patent US20220133761A1, “NEUTROPHIL APOPTOSIS INDUCED BY NANOPARTICLES FOR TREATING INFLAMMATORY DISEASES” (WASHINGTON STATE UNIVERSITY, priority 2020, published 2022)
